Series [1] concerns brown guinea pigs (Tortoiseshell guinea pigs). The series can be described thus: Whitening effect on UV-induced pigmentation in brown guinea pigs (chromameter L*). It counts as in vivo. The conditions noted are these: topical once or twice a day for 50 days, UV-pigmented guinea pig skin. From the text:
In order to confirm the whitening effect of artemisinine in animals, brown guinea pigs (Tortoiseshell guinea pigs), which are known to increase pigmentation upon exposure to UV like human, were used to perform the following experiment.
(§1) To cause pigmentation in the brown guinea pig by UV, light-shielding aluminum foil with windows of 3×3 cm^2 was adhered to hair-removed abdominal skin of brown guinea pig, and then UV light was irradiated thereon with a SE lamp (wavelength 290-320 nm, Toshiba) (total irradiation energy=1350 mJ/cm^2). After UV irradiation, the aluminum foil was removed, and then the samples (artemisinine and arbutin) were applied as follows. […] From the maximum, each sample was applied. Applications were performed once or twice a day for 50 days. The samples were dissolved and diluted in a certain solvent (a mixed solvent of propylene glycol:ethanol:water=5:3:2) and applied with a swab. Another region was applied with the solvent only as a control. Occurrence of cumulative irritation also was examined.
The degree of skin pigmentation was determined using a chromameter (MINOLTA CR2002) to evaluate the effects. L*A*B* colorimetric system is used to classify color, and an L* value was used as standard in the present invention. The L* value was corrected using white board standard, and measured more than five times at one region, repeatedly. Pigmentation was evenly distributed. Skin color differences (ΔL*) between initial application point and terminal application point were obtained by using the following Mathematical Equation 1, and then using these values, their effects of the applied samples were evaluated.
ΔL*=L*value at terminal application day−L*value at initial application day [Mathematical Equation 1]
ΔL* values were obtained at sample application region and control application region and compared. From the result, the whitening effects of the samples can be evaluated.

In series [2] the test system is Murine melanoma (B16 F10) cells. Briefly: Inhibitory effect on melanin synthesis in murine B16 melanoma cells. In kind it is cell-based. Conditions: Mus musculus, 72 h, 3 days, read-out: Inhibition rate of melanin synthesis (%). As to the method:
In order to confirm the inhibitory effect of artemisinine on melanin synthesis, murine B16 melanoma cells were used to perform the following experiment.
Artemisinine used in the present experiment was purchased from Sigma.
Murine melanoma (B16 F10) cells were inoculated on 6 well plates containing DMEM media supplemented with 10% FBS (fetal bovine serum) (1×10^5 per well), and cultured in 5% CO2 at37° C. until reaching about 80% confluency. Then, media was removed from the cells, replaced with fresh media, and cultured in 5% CO2 at 37° C. for 3 days. […] Media was removed from the cells, and the cells were washed with PBS (phosphate buffered saline), followed by trypsin treatment. The cells were recovered, and counted using a hemocytometer. Then, the cells were centrifuged at 5,000 to 10,000 rpm for 10 min, and the supernatant was removed to obtain a pellet. The pellet was dried at 60° C., and suspended in 100 […] of 1 M sodium hydroxide solution containing 10% DMSO in a 60° C. water bath to obtain melanin in the cells. Absorbance was determined at 490 nm using a microplate reader to assess the melanin content per cell. As a control group, a known inhibitor of melanin synthesis, arbutin, was used.

The target in series [3] is T1, tyrosinase (Mus musculus, UniProt P11344).
T1 construct: endogenous in cells; host or cells: murine melanoma B16 F10 cells
T1 sequence (P11344 19-533): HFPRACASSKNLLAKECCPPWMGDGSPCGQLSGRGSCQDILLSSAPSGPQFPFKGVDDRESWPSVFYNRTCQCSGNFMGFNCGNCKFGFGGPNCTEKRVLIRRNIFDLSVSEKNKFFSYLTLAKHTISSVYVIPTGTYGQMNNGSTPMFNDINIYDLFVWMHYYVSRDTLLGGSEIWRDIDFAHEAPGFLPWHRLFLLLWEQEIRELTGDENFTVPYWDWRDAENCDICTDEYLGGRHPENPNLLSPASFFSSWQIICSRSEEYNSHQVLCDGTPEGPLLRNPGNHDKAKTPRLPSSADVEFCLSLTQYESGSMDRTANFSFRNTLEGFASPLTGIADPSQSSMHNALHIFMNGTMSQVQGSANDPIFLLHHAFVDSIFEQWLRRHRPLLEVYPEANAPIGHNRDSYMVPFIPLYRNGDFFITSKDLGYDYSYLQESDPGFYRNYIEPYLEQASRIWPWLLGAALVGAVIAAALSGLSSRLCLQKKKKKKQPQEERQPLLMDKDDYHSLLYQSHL
Briefly: Inhibitory effect on tyrosinase activity in murine B16 melanoma cells. It counts as cell-based. Conditions: B16 F10 cells, 3 days, read-out: Inhibition rate of tyrosinase activity (%). As to the method: In order to confirm the inhibitory effect of artemisinine on tyrosinase activity, murine B16 melanoma cells were used to perform the following experiment.
Murine melanoma (B16 F10) cells were inoculated on 6 well plates containing DMEM media supplemented with 10% FBS (1×10^5 per well), and cultured in 5% CO2 at 37° C. until reaching about 80% confluency. Then, media was removed from the cells, replaced with fresh media, and cultured in 5% CO2 at37° C. for 3 days. […] Media was removed from the cells, and the cells were washed with PBS, followed by trypsin treatment. The cells were recovered, and counted using a hematocytometer. Then, the cells were centrifuged at 5,000 to 10,000 rpm for 10 min, and the supernatant was removed to obtain a pellet. The pellet was suspended in a lysis buffer, and centrifuged at 12,000 rpm for 10 min to collect the supernatant. Absorbance was determined at 492 nm using a microplate reader to assess the tyrosinase activity per cell. As a control group, arbutin was used.

For series [4], the system named is Murine melanoma (B16 F10) cells. Briefly: Cytotoxicity at treatment concentrations in B16 F10 cells. It counts as cell-based. The conditions noted are these: 10 μM, 50 μM and 100 μM.
The test system of series [5] is brown guinea pigs (Tortoiseshell guinea pigs). Briefly: Cumulative irritation examined in brown guinea pigs. In kind it is in vivo. The conditions noted are these: topical application for 50 days, guinea pig.
Text: as §1

Usually inhibition stands for the share of the control response that was lost under treatment. On to `OC[C@H]1O[C@@H](Oc2ccc(O)cc2)[C@H](O)[C@@H](O)[C@@H]1O` [Arbutin, arbutin], for which, in series [1] (1.0 %), the “Whitening effect (ΔL*)” value is reported as 0.55. Besides, the figures for the inhibition at 100 µM in series [2] and in series [3] were 52% and 45%, respectively.
As to `C[C@@H]1CC[C@H]2[C@@H](C)C(=O)O[C@@H]3O[C@@]4(C)CC[C@@H]1[C@]32OO4` [Artemisinine, artemisinine], the “Whitening effect (ΔL*)” value worked out at 0.40 in series [1] (0.2 %) and 0.65 in series [1] (1.0 %). Also, the inhibition at 10 µM amounted to 22% in series [2] (10 μM) and 19% in series [3] (10 μM). Besides, the inhibition at 50 µM was determined as 50% in series [2] (50 μM) and 38% in series [3] (50 μM). Also, the inhibition at 100 µM in series [2] amounted to 65%; in series [3] it was 67%. Further, the Cytotoxicity result in series [4] is “no cytotoxicity”. Further, the Cumulative irritation result in series [5] is reported as “no cumulative irritation”.

The values are drawn from US20100061948A1, “COMPOSITION FOR SKIN WHITENING COMPRISING ARTEMISININE” (priority 2007, published 2010).
